Reference: patent US9346761B2, “Arginine methyltransferase inhibitors and uses thereof” (Epizyme, Inc., priority 2013, dated 2016)

Tests used:
[1] = system: mono-methyl arginine in RKO cells; assay: RKO methylation assay, In Cell Western for mono-methyl arginine and DNA content; type: cell-based; details: Homo sapiens; In Cell Western, RKO cells, 72 hours, percent activation of mono-methyl arginine signal; read-out: EC30
Description: RKO adherent cells were purchased from ATCC (American Type Culture Collection), Manassas, Va., USA. DMEM/Glutamax medium, penicillin-streptomycin, heat inactivated fetal bovine serum, 0.05% trypsin and D-PBS were purchased from Life Technologies, Grand Island, N.Y., USA. Odyssey blocking buffer, 800CW goat anti-rabbit IgG (H+L) antibody, and Licor Odyssey infrared scanner were purchased from Licor Biosciences, Lincoln, Nebr., USA. Mono-methyl arginine antibody was purchased from Cell Signaling Technology, Danvers, Mass., USA. Methanol was purchased from VWR, Franklin, Mass., USA. 10% Tween 20 was purchased from KPL, Inc., Gaithersburg, Md., USA. […] was purchased from Biostatus Limited, Leicestershire, UK.
RKO adherent cells were maintained in growth medium (DMEM/Glutamax medium supplemented with 10% v/v heat inactivated fetal bovine serum and 100 units/mL penicillin-streptomycin) and cultured at 37° C. under 5% CO2
Cell Treatment, in Cell Western (ICW) for Detection of Mono-Methyl Arginine and DNA Content. […] Compound (100 nL) from a 96-well source plate was added directly to 384 well cell plate. Plates were incubated at 37° C., 5% CO2 for 72 hours. After three days of incubation, plates were brought to room temperature outside of the incubator for ten minutes and blotted on paper towels to remove cell media. 50 μL of ice cold 100% methanol was added directly to each well and incubated for 30 min at room temperature. After 30 min, plates were transferred to a Biotek EL406 plate washer and washed 2 times with 100 μL per well of wash buffer (1×PBS). Next 60 μL per well of Odyssey blocking buffer (Odyssey Buffer with 0.1% Tween 20 (v/v)) were added to each plate and incubated 1 hour at room temperature. Blocking buffer was removed and 20 μL per well of primary antibody was added (mono-methyl arginine diluted 1:200 in Odyssey buffer with 0.1% Tween 20 (v/v)) and plates were incubated overnight (16 hours) at 4° C. Plates were washed 5 times with 100 μL per well of wash buffer. […] The plates were washed 5 times with 100 μL per well wash buffer then 2 times with 100 μL per well of water. Plates were allowed to dry at room temperature then imaged on the Licor Odyssey machine which measures integrated intensity at 700 nm and 800 nm wavelengths. Both 700 and 800 channels were scanned.
Calculations: First, the ratio for each well was determined by:
Each plate included fourteen control wells of DMSO only treatment (minimum activation) as well as fourteen control wells for maximum activation treated with 20 μM of a reference compound. The average of the ratio values for each control type was calculated and used to determine the percent activation for each test well in the plate. Reference compound was serially diluted three-fold in DMSO for a total of nine test concentrations, beginning at 20 μM. Percent activation was determined and EC30 curves were generated using triplicate wells per concentration of compound.

Full-length human PRMT6 = biological target: T1, Full-length human PRMT6 (Homo sapiens, UniProt Q96LA8); assay: PRMT6 biochemical assay (3H-SAM Flashplate, peptide substrate)
T1 construct: Flag-PRMT6-His was eluted with 200 ug/ml FLAG peptide in the same buffer; made in house; host or cells: HEK 293F cells (BacMam virus, pFastBacMam)
Description: (§1) General Materials. S-adenosylmethionine (SAM), S-adenosylhomocysteine (SAH), bicine, Tween20, dimethylsulfoxide (DMSO), bovine skin gelatin (BSG), sodium butyrate and Tris(2-carboxyethyl)phosphine hydrochloride solution (TCEP) were purchased from Sigma-Aldrich at the highest level of purity possible. ^3H-SAM was purchase from American Radiolabeled Chemicals with a specific activity of 80 Ci/mmol. 384-well streptavidin Flashplates were purchased from PerkinElmer.
Substrates. Peptide representative of human histone H4 residues 36-50 was synthesized with an N-terminal linker-affinity tag motif and a C-terminal amide cap by 21st Century Biochemicals.
The amplified gene was subcloned into pFastBacMam (Viva Biotech).
Protein Expression. Recombinant baculovirus were generated according to Bac-to-Bac kit instructions (Life Technologies). […] Infections were carried out at 37° C. for 48 hours, harvested by centrifugation, and stored at −80° C. for purification.
Protein Purification. […] Column was washed with 20 mM imidazole in the same buffer and Flag-PRMT6-His was eluted with 150 mM imidazole. Pooled fractions were dialysed against buffer Ni-A and further purified by anti-flag M2 affinity chromatography. Flag-PRMT6-His was eluted with 200 ug/ml FLAG peptide in the same buffer. Pooled fractions were dialysed in 20 mM Tris, 150 mM NaCl, 10% glycerol and 5 mM β-mercaptoethanol, pH 7.8.
(§2) General Procedure for PRMT6 Enzyme Assays on Peptide Substrates. The assays were all performed in a buffer consisting of 20 mM Bicine (pH=7.6), 1 mM TCEP, 0.005% BSG, and 0.002% Tween 20, prepared on the day of use. […] DMSO (1 ul) was added to Columns 11, 12, 23, 24, rows A-H for the maximum signal control and 1 ul of SAH, a known product and inhibitor of PRMT6, was added to columns 11, 12, 23, 24, rows I-P for the minimum signal control. A cocktail (40 ul) containing the PRMT6 enzyme was added by Multidrop Combi (Thermo-Fisher). The compounds were allowed to incubate with PRMT6 for 30 min at room temperature, then a cocktail (10 ul) containing SAM and peptide was added to initiate the reaction (final volume=51 ul). […] The assays were stopped by the addition of non-radiolabeled SAM (10 ul) to a final concentration of 400 uM, which dilutes the ^3H-SAM to a level where its incorporation into the peptide substrate is no longer detectable. 50 ul of the reaction in the 384-well polypropylene plate was then transferred to a 384-well Flashplate and the biotinylated peptides were allowed to bind to the streptavidin surface for at least 1 hour before being washed once with 0.1% Tween20 in a Biotek ELx405 plate washer. The plates were then read in a PerkinElmer TopCount plate reader to measure the quantity of ^3H-labeled peptide bound to the Flashplate surface, measured as disintegrations per minute (dpm) or alternatively, referred to as counts per minute (cpm).
(§3) Where dpm=disintegrations per minute, cmpd=signal in assay well, and min and max are the respective minimum and maximum signal controls.
(§4) Where top and bottom are the normally allowed to float, but may be fixed at 100 or 0 respectively in a 3-parameter fit. The Hill Coefficient normally allowed to float but may also be fixed at 1 in a 3-parameter fit. Y is the % inhibition and X is the compound concentration.

[2] = biological target: T2, Full-length human PRMT1 isoform 1 (Homo sapiens, UniProt Q99873); assay: PRMT1 biochemical assay (3H-SAM Flashplate, peptide substrate)
T2 construct: GST-tagged PRMT1; made in house; host or cells: High Five insect cells (baculovirus, pFastBacI)
Description: as §1, with “(BSG),” for “(BSG), sodium butyrate”
Protein Expression. Recombinant baculovirus were generated according to Bac-to-Bac kit instructions (Life Technologies). […] Infections were carried out at 27° C. for 48 hours, harvested by centrifugation, and stored at −80° C. for purification.
Protein Purification. […] GST-tagged PRMT1 was eluted with 50 mM Tris, 2 mM glutathione, pH 7.8, dialysed in buffer A and concentrated to 1 mg/mL.
as §2, with “PRMT1” for “PRMT6”, “PRMT1,” for “PRMT6,”, “300” for “400”
as §3, §4

T1 sequence (Q96LA8 with tags, fused parts or gaps): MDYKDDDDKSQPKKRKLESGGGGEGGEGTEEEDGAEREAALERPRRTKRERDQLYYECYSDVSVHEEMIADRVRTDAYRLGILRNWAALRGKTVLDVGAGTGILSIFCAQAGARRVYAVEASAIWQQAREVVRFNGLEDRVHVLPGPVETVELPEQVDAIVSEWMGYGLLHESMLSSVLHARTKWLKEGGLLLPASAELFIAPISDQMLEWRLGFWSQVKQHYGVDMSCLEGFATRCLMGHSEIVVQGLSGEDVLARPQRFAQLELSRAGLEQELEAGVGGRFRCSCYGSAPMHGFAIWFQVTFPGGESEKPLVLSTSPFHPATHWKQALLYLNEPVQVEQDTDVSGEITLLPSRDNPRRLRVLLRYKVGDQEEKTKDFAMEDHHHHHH
T2 sequence (Q99873 with tags, fused parts or gaps): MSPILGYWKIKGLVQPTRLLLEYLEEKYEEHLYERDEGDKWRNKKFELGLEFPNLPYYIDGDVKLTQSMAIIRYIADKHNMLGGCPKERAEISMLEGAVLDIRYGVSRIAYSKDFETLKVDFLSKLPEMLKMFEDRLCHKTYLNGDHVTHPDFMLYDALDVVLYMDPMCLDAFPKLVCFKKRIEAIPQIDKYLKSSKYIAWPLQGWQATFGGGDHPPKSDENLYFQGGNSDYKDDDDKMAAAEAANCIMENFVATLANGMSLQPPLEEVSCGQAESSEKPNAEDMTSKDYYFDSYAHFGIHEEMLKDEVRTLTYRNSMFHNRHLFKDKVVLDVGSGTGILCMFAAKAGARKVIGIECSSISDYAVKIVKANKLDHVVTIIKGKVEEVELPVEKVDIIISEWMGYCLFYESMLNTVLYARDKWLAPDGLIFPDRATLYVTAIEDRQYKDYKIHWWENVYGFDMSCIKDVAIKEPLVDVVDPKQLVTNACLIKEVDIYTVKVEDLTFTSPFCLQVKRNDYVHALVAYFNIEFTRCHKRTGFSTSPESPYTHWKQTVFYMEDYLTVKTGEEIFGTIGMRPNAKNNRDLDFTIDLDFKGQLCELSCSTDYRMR

Structure (SMILES) | EC30 [1] [nM] | IC50 (Full-length human PRMT6) [nM] | IC50 [2] [nM]
CNCCN(C)Cc1n[nH]cc1-c1ccc(Oc2cccc(OC)c2)cc1 [Compound 239] | < 3000 | < 100 | < 100
CNCCN(C)Cc1n[nH]cc1-c1ccc(Oc2ccccc2)c(C(=O)NC)c1 [Compound 240] | 3010 to 12000 | < 100 | < 100
CNCCN(C)Cc1n[nH]cc1-c1ccc(Oc2ccccc2)c(C(=O)N(C)C)c1 [Compound 241] | 3010 to 12000 | < 100 | < 100
CNCCN(C)Cc1n[nH]cc1-c1cc(C(C)C)cc(C(C)C)c1 [Compound 242] | > 12000 | 1010 to 3000 | 101 to 1000
CNCCN(C)Cc1cn(Cc2ccncc2)nc1-c1ccc(OC(C)C)cc1 [Compound 245] | < 3000 | 101 to 1000 | < 100
CN(CCN)Cc1c[nH]nc1-c1ccc(Oc2ccccc2F)cc1 [Compound 259] | < 3000 | < 100 | < 100
CNCCN(C)Cc1c[nH]nc1-c1cc(OC(C)C)cc(C(C)C)c1 [Compound 260] | 3010 to 12000 | 101 to 1000 | < 100
CNCCN(C)Cc1c[nH]nc1-c1ccc(Oc2cccc(C#N)c2)cc1 [Compound 261] | < 3000 | < 100 | < 100
CNCCN(C)Cc1c[nH]nc1-c1ccc(Oc2cccc(C(C)C)c2)cc1 [Compound 262] | < 3000 | < 100 | < 100
CNCCN(C)Cc1c[nH]nc1-c1ccc(Oc2cccc(C(=O)NC)c2)cc1 [Compound 263] | < 3000 | < 100 | < 100
CNCCN(C)Cc1c[nH]nc1-c1cc(Cl)c(OC(C)C)c(Cl)c1 [Compound 265, N^1-((3-(3,5-dichloro-4-isopropoxyphenyl)-1H-pyrazol-4-yl)methyl)-N^1,N^2-dimethylethane-1,2-diamine] | < 3000 | < 100 | < 100
CNCCN(C)Cc1nn(C)cc1-c1ccc(OCCCOC)cc1 [Compound 266] | > 12000 | < 100 | 101 to 1000
CNCCN(C)Cc1n[nH]cc1-c1ccc(Oc2cccc(C#N)c2)cc1 [Compound 267] | < 3000 | < 100 | < 100
CNCCN(C)Cc1n[nH]cc1-c1ccc(Oc2cccc(C(=O)NC)c2)cc1 [Compound 268] | 3010 to 12000 | < 100 | < 100
CNCCN(C)Cc1n[nH]cc1-c1ccc(Oc2cccc(F)c2)cc1 [Compound 270] | < 3000 | < 100 | < 100
CNCCN(C)Cc1n[nH]cc1-c1cc(CC(C)C)cc(CC(C)C)c1 [Compound 271] | > 12000 | 101 to 1000 | < 100
CNCCN(C)Cc1n[nH]cc1-c1cc(OC(C)C)cc(C(C)C)c1 [Compound 272] | > 12000 | 1010 to 3000 | 101 to 1000
CNCCN(C)Cc1n[nH]cc1-c1cc(Cl)c(OC(C)C)c(Cl)c1 [Compound 273] | < 3000 | < 100 | < 100
CNCCN(C)Cc1c[nH]nc1-c1ccc(Oc2ccccc2C(=O)NC)cc1 [Compound 274] | < 3000 | < 100 | < 100
CNCCN(C)Cc1n[nH]c(C)c1-c1ccc(OC(C)C)cc1 [Compound 275] | < 3000 | < 100 | < 100
CNCCN(C)Cc1c(-c2ccc(OCCCOC)cc2)cnn1C [Compound 276] | > 12000 | 1010 to 3000 | > 10000
CNCCN(C)Cc1n[nH]cc1-c1ccc(Oc2cccc(C(C)C)c2)cc1 [Compound 277] | > 12000 | < 100 | < 100
CNCCN(C)Cc1n[nH]cc1-c1ccc(Oc2ccccc2F)cc1 [Compound 279, N^1-((4-(4-(2-fluorophenoxy)phenyl)-1H-pyrazol-3-yl)methyl)-N^1,N^2-dimethylethane-1,2-diamine] | < 3000 | < 100 | < 100
CC(C)Cc1cc(-c2n[nH]cc2CN(C)CCN)ccc1F [Compound 280] | < 3000 | < 100 | < 100
